# Source: patent publication US20150265558A1, “TREATMENT OF ADHD” (BTG International Limited, priority 2004, published 2015)
# Tests used:
# [1] = Plasma determination of (R)-3-hydroxybutyrate after i.p. injection; format: in vivo, Sprague-Dawley rats
# Method: (§1) One hundred and seventy-one male Sprague-Dawley rats (weight range 200-250 g) housed on a standard […] were used. Animals had free access to a standard pelleted rat diet and tap water at all times. KTX 0101 (sodium (R)-3-hydroxybuytrate; 100, 300, 600 and 1000 mg/kg body weight) supplied by Sigma (H6501, Lot 111K2618) was administered by intraperitoneal injection. Control animals received the appropriate 0.9% saline vehicle via the same route. Animals were killed by CO2 asphyxiation 0 h, 0.5 h, 1.0 h or 2.0 h after dosing and a terminal blood sample was collected by cardiac puncture. Blood was taken in lithium heparinised tubes and kept on ice prior to centrifugation to yield the plasma samples for analysis.
# Commercial clinical assay kits for the determination of D-β-hydroxybutyrate were obtained from Randox Laboratories (Antrim, UK). The kit quantified NADH via the activity of β-hydroxybutyrate dehydrogenase measured as an increase in OD340 nm. An alkaline pH is necessary to drive the reaction equilibrium towards the production of NADH and acetoacetate.
# This spectrophotometric assay was modified for application to a 96 well microplate format. The reaction rate was then determined from the increase in OD340 nm over a 1 minute time course, after allowing a necessary period for the reaction rate to settle.
# [2] = Plasma determination of acetoacetate after i.p. injection; format: in vivo, Sprague-Dawley rats; conditions: 30 min after dosing
# Method: as §1
# The assay developed for the determination of acetoacetate was based on previously published clinical assays (Li et al, 1980; McMurray et al, 1984). A different assay buffer was prepared (0.1M Na2PO4 adjusted to pH 7.0 with HCl) in order to shift the equilibrium of the reaction to production of […] and NAD+, Other modifications included the additional use of sodium oxalate at a final assay concentration of 20 mM to inhibit lactate dehydrogenase (LDH) present in the plasma samples. […]
# Acetoacetate was measured via the reduction in OD340 nm over a 1 minute period after allowing for the reaction rate to settle.
# [3] = system: Fisher rats (frontal cortex, hippocampus, striatum, reticular formation); assay: Tele-Stereo-EEG: electrical power of four brain areas in freely-moving rats after single i.p. dose; format: in vivo, rat
# From the text: Analysis of brain field potentials (“Tele-Stereo-EEG”) has been proven to be a very sensitive tool for the characterization of drug effects on the central nervous system (Dimpfel et al., 1986). After administration of a centrally active drug, quantitative changes in the brain field potentials can be considered as a characteristic fingerprint of that particular drug. “Fingerprints” of more than 100 compounds have been obtained including 8 established drug categories, e.g. stimulants, sedatives, hallucinogenics, tranquilizers, analgesics, antidepressants, neuroleptics, and narcotics. Different dosages of the same drug cause quantitative changes in electrical power. […] Direct comparison with specific reference drugs, or by discriminant analysis with reference to an extensive fingerprint database, permits the detection of any possible similarities with established drugs. In general, “fingerprints” show prominent differences for drugs prescribed for different indications and are similar for drugs with the same indication (Dimpfel, 2003). Furthermore, the pattern of EEG changes in the rat is a useful tool in predicting possible changes in the EEG power spectrum in humans.
# Adult Fisher rats (4-6 month of age and day—night converted, bodyweight approximately 400 g) were implanted with 4 bipolar concentric steel electrodes using a stereotaxic surgical procedure. According to the coordinates of Paxinos and Watson (1982), all four electrodes were placed 3 mm lateral within the left hemisphere. Anterior coordinates were 12.2, 5.7, 9.7 and 3.7 mm for frontal cortex, hippocampus, striatum and reticular formation, respectively. A baseplate carrying the electrodes and a 5-pin-plug was fixed to the skull by dental cement attached to 3 steel screws fixed into the skull. Animals were given two weeks for recovery from the surgical procedure.
# EEG signals were recorded from frontal cortex, hippocampus, striatum and reticular formation and were amplified and processed as described by Dimpfel et al. (1986). After automatic artifact rejection, signals were collected in sweeps of 4 s duration and submitted to Fast Fourier transformation. The resulting electrical power spectra were divided into 6 frequency ranges: delta (0.8-4.5 Hz); theta (4.75-6.75 Hz); alpha1 (7.00-9.50 Hz); alpha2 (9.75-12.50 Hz); beta (12.75-18.50 Hz); beta2 (18.75-35.00 Hz). […] In an off-line procedure spectra were averaged to give 15 minute or longer periods for further statistical analysis.
# Four doses of KTX 0101 (sodium (R)-3-hydroxybuytrate: 100, 300, 600 and 1000 mg/kg body weight) (supplied by Solvias AG, CH 4002 Basel, Switzerland, batch No: SO-1058.047.1.120) and a vehicle control (0.9% w/v saline) were administered intraperitoneally to a group of 12 animals using a crossover design with at least 3 drug holidays in between the applications. After a pre-drug period of 45 minutes for baseline recording, drug effects were observed continuously for 300 minutes. Changes of electrical power (uV2/W) are expressed as percentage of the 45 minute pre-drug values. Multivariate statistics were calculated according to Ahrens and Läuter (1974).
# freely moving rat = conditions: cited from earlier work; for effect on alpha2 frequencies: Dimpfel et al., 1987
smiles,measurement,setting,value
"C[C@@H](O)CC(=O)[O-].[Na+] [KTX 0101, sodium (R)-3-hydroxybuytrate]",plasma concentration of (R)-3-hydroxybutyrate,"[1]; 100, 300, 600 and 1000 mg/kg ip",clear dose-dependent increases
same,time of highest elevation in plasma (R)-3-hydroxybutyrate,"[1]; 100-1000 mg/kg ip, first sample",30 min
same,time to return of plasma (R)-3-hydroxybutyrate to control values,[1]; after injection,≤ 1 h
same,plasma concentration of acetoacetate,[2]; 600 mg/kg,significantly increased
same,plasma concentration of acetoacetate,[2]; 1000 mg/kg,significantly increased
same,duration of EEG effects,[3]; 100 mg/kg i.p.,1 to 2 h
same,statistical significance of EEG changes,[3]; 100 mg/kg i.p.,not statistically significant
same,pattern of change in EEG electrical power,"[3]; 100 mg/kg i.p., all regions",decrease of electrical power mainly with regard to alpha2
same,duration of EEG pattern of changes,[3]; 300 mg/kg ip,2 h
same,pattern of change in EEG electrical power,[3]; 300 mg/kg ip,decreases in alpha2 power throughout all brain regions
same,statistical significance of EEG changes,[3]; 300 mg/kg ip,only statistically significant in the reticular formation
same,duration of EEG effects,"[3]; 600 mg/kg ip, generally, except reticular formation",2 h
same,duration of decreases in power in the reticular formation,"[3]; 600 mg/kg ip, reticular formation",persisted throughout the third hour
same,statistical significance of EEG changes,"[3]; 600 mg/kg ip, incl. first hour in striatum and all 24 variables overall",statistically significant
same,duration of decreases of power,[3]; 1000 mg/kg,lasting into the third hour
same,pattern of change in EEG electrical power,[3]; 1000 mg/kg,more prominent decreases of power
same,duration of decreases of power in the reticular formation,"[3]; 1000 mg/kg, reticular formation, total experimental time",5 h
same,statistical significance of EEG changes,"[3]; 1000 mg/kg, even for the 4th hour within the reticular formation",statistically significant
same,brain regions with significant EEG changes,[3]; 2 highest doses (600 and 1000 mg/kg),"significant changes were also observed in the frontal cortex, hippocampus and striatum"
same,similarity of qEEG fingerprint to drug classes by discriminant analysis,"[3]; 24 variables, 20th to 50th min after single-dose application","close proximity to the dopaminergic psychostimulants, d-amphetamine and cocaine"
same,EEG frequencies affected,[3]; 100 to 1000 mg/kg i.p.,"all frequencies, except for the beta2 range"
same,period of greatest changes in EEG patterns,[3]; after injection,5 to 65 min
same,"EEG changes, summary",[3]; dose range of 300 to 1000 mg/kg ip,"clear, dose- and time-dependent statistically significant changes"
N[C@@H](Cc1ccc(O)c(O)c1)C(=O)O [L-DOPA],effect on alpha2 frequencies,freely moving rat,decrease alpha2 frequencies
Oc1cc2c(cc1O)C(c1ccccc1)CNCC2 (stereo not drawn) [SKF 38393],effect on alpha2 frequencies,freely moving rat,decrease alpha2 frequencies
CC(N)Cc1ccccc1 (stereo not drawn) [amphetamine],effect on alpha2 frequencies,freely moving rat,decrease alpha2 frequencies
Clc1cccc(Cl)c1N=C1NCCN1 [clonidine],effect on theta activity,"freely moving rat; Dimpfel and Schober, 2001",increase
